Series [1] in a line: Cytotoxicity assay (Cell Counting Kit-8). The following applies: African green monkey, Vero cells, confluent monolayer; 48 h at 37 °C in the dark; compounds 0–10 µM. The series is classed as cell-based. As to the method: Vero cells were cultured for 24 h in 96-well plates to form a confluent monolayer, and then were treated with the tested compounds at concentrations of 0–10 µM. After 48 h of cultivation in the dark at 37 °C under 5% CO2, the cell culture medium was aspirated. The potential cytotoxicity of the tested derivatives was determined based on cell viability using Cell Counting Kit-8 (Dojindo Molecular Technologies, Munich, Germany) according to the manufacturer’s instructions (Figure 5A).
Background: Formazan colour is commonly taken as a measure of viable cells.

The nature of series [2]: Singlet oxygen generation quantum yield (SOSG fluorescence). The series is classed as physicochemical. The note with it: in methanol, illumination 430–450 nm, 5.5 mW/cm^2, reference PS C1T11. As to the method: The ROS generation rate was estimated using the spectrofluorimetric method, based on the fluorescense changes of Singlet Oxigen Sensor Green (SOSG®, Lumiprobe, Cockeysville, MD, USA) in methanol solution. Oxidation of SOSG by singlet oxygen results in peroxide formation enhancing SOSG fluorescence.
Spectrophotometric measurements were performed in a Qpod 2e thermostated cuvette holder (Quantum Northwest, Liberty Lake, WA, USA) at 25 °C and with magnetic stirring (500 rpm). Absorption spectra were recorded using a MayaPro spectrophotometer (Ocean Optics, Orlando, FL, USA) and a stabilized white light source with a SLS201L tungsten lamp (Thorlabs, Newton, NJ, USA). The fluorescence of SOSG was measured with a Flame CCD spectrometer (Ocean Optics, Orlando, FL, USA) in StripChart mode (530 nm), excitation of the SOSG fluorescence was carried out with a PLS-510 LED laser (InTop, St. Petersburg, Russia) in CW mode at the wavelength of 510 nm.
To study photosensitized ^1O2 generation, we used a white MCWHLP1 LED (Thorlabs, USA) with filters to limit the radiation to the 430–450 nm range (5.5 mW/cm^2). Illumination was uniform over the entire volume of the cuvette, to prevent artifacts associated with the diffusion of non-reacted components from entering into the illuminated volume of the cuvette. Illumination was performed in pulsed mode, with 1 s of illumination followed by 5 s of dark adaptation, during which the fluorescence spectrum of the photosensitizer-SOSG solution was recorded.
Singlet oxygen generation quantum yield for compounds 3a–3f in methanol was calculated according to Equation (1):(1) φΔ=φΔ0∗r/r^0(1−10^−A^0)/(1−10^−A), where r is the rate of SOSG fluorescence increase in solution of the photosensitizer (PS), A is the PS absorbance in the region of illumination, and index 0 represents reference PS (we used perylene compound C1T11 [65] with φΔ0=0.59 in methanol).

Series [3] has as its system SARS-CoV-2. In words: Virus titer reduction assay. The series is classed as cell-based. The note with it: for SI: SARS-CoV-2 EC50 and Vero cells CC50; for EC50: Severe acute respiratory syndrome coronavirus 2.
A short description of series [4]: Light-induced cytotoxicity (photocytotoxicity). The following applies: cat (Felis catus), CRFK cells, confluent monolayer; blue light 465–480 nm, 30 mW/cm^2, 10 min; then 48 h incubation; read-out: Cell viability of irradiated CRFK cells. The series is classed as cell-based.
On the set-up of series [5]: method as in PMID 37339718. The note with it: in methanol; cited from earlier work.
Series [6] in a line: Cytotoxicity to CRFK cells under normal lighting. The series is classed as cell-based. The following applies: cat (Felis catus), CRFK cells (kidney cortex), confluent monolayer. As for the experimental part: Furthermore, we investigated the mechanism of antiviral activity of perylenylethynylphenols using FIPV, another member of the Coronaviridae family, which is an important veterinary pathogen.
To determine the light-induced cytotoxicity of the compounds, CRFK cells were cultured in 96-well plates for 24 h to form a confluent monolayer and then treated with the tested compounds at concentrations ranging from 0 to 10 µM in daylight. Subsequently, cells treated with the compounds were irradiated with LEDs (465–480 nm, 30 mW/cm^2) for 10 min at RT (Figure 7A, top panel). As a negative control, CRFK cells were treated with the compounds in daylight and then incubated in the dark at RT for 10 min (Figure 7A, bottom panel). Subsequently, both irradiated and non-irradiated cell monolayers were incubated for 48 h in the dark at 37 °C. After incubation, the potential photocytotoxicity of the compounds was determined using Cell Counting Kit-8 (Dojindo Molecular Technologies, Munich, Germany) according to the manufacturer’s instructions.

Series [7] can be described thus: Interaction with liposomes (steady-state fluorescence). The series is classed as physicochemical. The following applies: 10 µM in PBS; 520 nm; after the complete incubation period (3500 s). As for the experimental part:
The affinity of 3a to lipid membranes was further confirmed using a liposomal (protein-free) membrane model system (Figure 6D,E). […] The kinetics of liposome penetration of 3a were measured as the steady-state fluorescence response at 520 nm, which reached maximal intensity of about 4 × 10^5 CPE after the complete incubation period (3500 s) (Figure 6E).
The samples’ steady-state fluorescence characteristics were measured in L-format using a Chronos DFD Fluorescence spectrometer (ISS, Baltimore, MD, USA) equipped with a 300 W Cermax xenon arc lamp (ISS, Baltimore, MD, USA), a concave holographic grating monochromator, and a PMT detector. The required amount of each sample was diluted in DMSO and measured in a 1-cm quartz cuvette, at a constant temperature of 25 °C. The resulting data were evaluated using Vinci software version 2 (ISS, Baltimore, MD, USA) and correlated to the utilized optical configuration.
The kinetics of the incorporation of compounds into liposome membrane models were determined using steady-state fluorescence spectroscopy at a constant excitation and emission wavelength, according to the corresponding sample excitation and emission maxima. We added 50 μL of LNP suspension to 10 µM of the analyte in PBS and monitored the increase in fluorescence intensity over the time range […].

In a further series the test system is PS cells. The series is described as follows: Confocal microscopy of penetration into cellular membranes. The series is classed as cell-based, porcine. The following applies: 10 µM. As for the experimental part: Confocal microscopy was used to study the penetration of compound 3a into cellular membranes. PS cells were treated with 3a (10 µM) in a µ-Slide 8 Well (IbidiGmbH, Gräfelfing, Germany) in the dark for 60 min at 37 °C. The samples were analyzed for fluorescent signal distribution and intensity using a Leica SP8 confocal microscope (Leica, Wetzlar, Germany) as described previously.

In series [8] the test system is FIPV. The series is described as follows: Anti-FIPV activity in CRFK cells (plaque assay). The series is classed as cell-based, feline infectious peritonitis virus. The following applies: Alphacoronavirus 1, normal lighting (preparation in daylight, cultivation in the dark).
Series [9] has as its system FIPV. The series is described as follows: Photodynamic inactivation of FIPV virions. The series is classed as cell-based, feline infectious peritonitis virus. As for the experimental part:
Considering that perylenylethynylphenols are potent ^1O2 photogenerators, we investigated their coronavirus inactivation activity after the irradiation of compound-pretreated FIPV with blue light (465–480 nm, with an approximate power density of 30 mW/cm^2; note: the 465–480 nm wavelength is close to the excitation maxima of perylenylethynylphenols). In this experiment, (i) compound 3a and the virus were mixed in daylight and irradiated with blue light for 10 min (Figure 7D, top panel), or (ii) the compound and virus were mixed in daylight and incubated in the dark for 10 min (Figure 7D, medium panel). Then, both samples (irradiated and non-irradiated) were incubated for 1 h at 37 °C in the dark, and the viability of FIPV was determined by a plaque assay. […] We speculate that the observed enhancement of antiviral (virus inactivation) activity of 3a is due to increased ^1O2 photogeneration during sample irradiation.
To completely eliminate the influence of daylight on the anti-FIPV activity of perylenylethynylphenols, we performed a parallel experiment in a dark room. In this experiment, all manipulations, including sample preparation and plaque assays, were performed under red light (624 ± 20 nm) (Figure 7D, bottom panel).
Virus in DMEM (titer of 10^6 PFU/mL) was mixed with 3a (0–10 µM) in a microtiter plate in daylight and irradiated for 10 min at RT with LEDs (465–480 nm) at an approximate power density of 30 mW/cm^2 (Figure 7D, top panel). As a negative control, the virus was mixed with 3a (0–10 µM) in daylight and incubated with the compound for 10 min in the dark at RT (Figure 7D, middle panel). Subsequently, both irradiated and non-irradiated virus samples were incubated in the dark at 37 °C for an additional 60 min. Viral titers were determined by plaque assays (also in daylight). […] The virus sample was mixed with 3a (0–10 µM), incubated at 37 °C for 60 min, and the viability of the virus was assessed by plaque assays (Figure 7D, bottom panel). […]

Series [10] relates to SARS-CoV-2. In words: Virucidal (virus-inactivating) activity, plaque assay. The series is classed as cell-based. The note with it: 10 µM; 120 min pre-incubation in the dark; starting titers 10^4, 10^6 and 10^7 PFU/mL.
The mark [11] stands for this setting: SARS-CoV-2 in Vero cells, normalized log-transformed response, read-out: App. EC50, calculated from log-transformed viral titers (converted).
The mark [12] stands for this setting: Vero cells, MOI 0.1, 48 h p.i., normal lighting, 50% reduction in viral titer, read-out: SARS-CoV-2 EC50.

Where two headings read alike, the source gives them in different places.

Turning to `Oc1ccc(C#Cc2ccc3c4cccc5cccc(c6cccc2c63)c54)cc1Br` [Compound 3c, 4-(Perylen-3-ylethynyl)-2-bromophenol], the CC50 (commonly the concentration at which the toxic effect on the cells reaches its halfway point) at 48 h in series [1] is over 10000 nM. In series [2], the “ϕΔ(1O2), singlet oxygen generation quantum yield” value was determined as 0.282. The same compound gave an SI with SARS-CoV-2 [3] of over 44. Also, the EC50 (usually the concentration needed to bring the measured effect to its halfway point) with SARS-CoV-2 [3] (setting [11]) is 1100 nM; with SARS-CoV-2 [3] (setting [12]), 227 nM.

Compound `Oc1ccc(C#Cc2cc3cccc4c5cccc6cccc(c(c2)c34)c65)cc1Br` [Compound 3f, 4-(Perylen-2-ylethynyl)-2-bromophenol] gave a CC50 at 48 h in series [1] of over 10000 nM. In addition, the “ϕΔ(1O2), singlet oxygen generation quantum yield” value in series [2] is listed as 0.332. The SI with SARS-CoV-2 [3] is on record as over 19. For the same compound, the EC50 in the series with SARS-CoV-2 [3] (setting [11]) was 2680 nM; in the series with SARS-CoV-2 [3] (setting [12]) it was 529 nM.

For the compound `Oc1ccc(C#Cc2cc3cccc4c5cccc6cccc(c(c2)c34)c65)cc1` [Compound 3d, 4-(Perylen-2-ylethynyl)phenol], the CC50 at 48 h in [1] is over 10000 nM. Further, the “ϕΔ(1O2), singlet oxygen generation quantum yield” value in series [2] came to 0.297. The compound further had an SI with SARS-CoV-2 [3] of over 16. For the same compound, the EC50 was 2220 nM with SARS-CoV-2 [3] (setting [11]) and 614 nM in the series on SARS-CoV-2 [3] (setting [12]).

`Oc1cccc(C#Cc2cc3cccc4c5cccc6cccc(c(c2)c34)c65)c1` [Compound 3e, 3-(Perylen-2-ylethynyl)phenol]: in [1], the CC50 at 48 h is over 10000 nM. Besides, in [4], the viability (in general, a read-out of living cells in per cent, often relative to untreated cells) at 48 h was over 100%. Also, the “ϕΔ(1O2), singlet oxygen generation quantum yield” value in [2] was determined as 0.460. This compound returned an SI in the series on SARS-CoV-2 [3] of over 29. Moreover, the EC50 with SARS-CoV-2 [3] (setting [11]) was 1580 nM; in the series on SARS-CoV-2 [3] (setting [12]), 347 nM.

For the compound `O=C(O)c1ccc(-c2ccc3c4cccc5cccc(c6cccc2c63)c54)s1` [Compound C1T11], the “φΔ0, singlet oxygen generation quantum yield of the reference PS” value in series [5] is 0.59.

`Oc1cccc(C#Cc2ccc3c4cccc5cccc(c6cccc2c63)c54)c1` [Compound 3b, 3-(Perylen-3-ylethynyl)phenol]: the CC50 at 48 h in [1] was over 10000 nM. In addition, the viability at 48 h in series [4] is over 100%. The “ϕΔ(1O2), singlet oxygen generation quantum yield” value in series [2] worked out at 0.451. This compound returned an SI in the series on SARS-CoV-2 [3] of over 196. In addition, the results for the EC50 in the series on SARS-CoV-2 [3] (setting [11]) and with SARS-CoV-2 [3] (setting [12]) were 506 nM and 51.1 nM, respectively.

`Oc1ccc(C#Cc2ccc3c4cccc5cccc(c6cccc2c63)c54)cc1` [Compound 3a, 4-(Perylen-3-ylethynyl)phenol]: the CC50 at 48 h in series [6] and in [1] was over 10000 nM each time. Besides, the “Maximal steady-state fluorescence intensity on liposome penetration” value in series [7] is “about 4 × 10^5 CPE”. Moreover, the “Cytotoxicity or morphological abnormalities in PS cells” value in the series on PS cells is on record as “no signs of cytotoxicity or morphological abnormalities”. Besides, the values for the EC50 in the series with FIPV [8], in the series with SARS-CoV-2 [3] (setting [11]) and with SARS-CoV-2 [3] (setting [12]) were 196 nM, 1790 nM and 120 nM, respectively. The “ϕΔ(1O2), singlet oxygen generation quantum yield” value in series [2] was 0.422. The “anti-FIPV activity under red light” value in the series on FIPV [9] (dark room, all manipulations under red light (624 ± 20 nm), up to 10 µM) is reported as “completely disappeared”. Moreover, in the series with FIPV [9] (mixed in daylight, blue light 465–480 nm, 30 mW/cm^2, 10 min, versus non-irradiated sample), the “anti-FIPV (virus inactivation) activity after blue-light irradiation” value is “significant increase in anti-FIPV activity”. The “FIPV-inactivation activity in the non-irradiated sample” value in the series on FIPV [9] (mixed in daylight, incubated in the dark 10 min, then 1 h at 37 °C) is given as “some FIPV-inactivation activity”. This compound came in with an SI in the series with SARS-CoV-2 [3] of over 83. The “Decrease in SARS-CoV-2 viral titer compared with control” value in the series on SARS-CoV-2 [10] is listed as “more than two orders of magnitude”.

The values above are taken from publication PMC10488391, “Membrane-Targeting Perylenylethynylphenols Inactivate Medically Important Coronaviruses via the Singlet Oxygen Photogeneration Mechanism” (Molecules, 2023).
